{
  "source": "patent US20090176817A1",
  "about": "“Method of Treatment of Diarrhea-Predominant Irritable Bowel Syndrome in a Subject” (priority 2005, published 2009)",
  "key": {"clinical [1]": {"assay": "clinical", "conditions": "male, human, in vivo; for CL renal: CLr; for half-life: T½", "experimental": "Subjects were randomized to receive cilansetron 8 mg IV solution (30-minute infusion), cilansetron 8 mg oral solution, and a cilansetron 8 mg capsule during the three treatment periods, with a 23-day washout between periods. All doses were administered under fasted conditions. […] Table 2.7.1.2.3 presents descriptive statistics for the pharmacokinetic parameters of cilansetron capsule and oral solution, and the results of statistical comparisons between treatments (capsule versus solution). […] Median Tmax was also similar between the capsule and oral solution.\nSubjects were randomized to receive cilansetron 8 mg IV solution (30-minute infusion), cilansetron 8 mg oral solution, and a cilansetron 8 mg capsule during the three treatment periods, with a 23-day washout between periods. All doses were administered under fasted conditions. […] Its low bioavailability, complete absorption from the GI tract, and its 4.5- to 5-fold higher apparent oral clearance in comparison to systemic clearance indicate that cilansetron is a high extraction drug and undergoes significant first pass metabolism on oral administration. Intersubject % CVs were higher for oral (47-73%) than for IV administration (19-20%), reflecting increased variability due to oral absorption. Intrasubject % CVs ranged from 37-47% following oral and IV administration.\nCilansetron concentrations in this study were also modeled using a standard 2-compartment model for the IV data and a 1-compartment model for the oral data (using TOPFIT 2.0). The results from modeling are compared to the results obtained from non-compartmental analysis in Table 2.7.2.3.10 below, for the oral and IV solution. The results obtained by the two methods are very similar."}, "[2]": {"conditions": "human, in vivo", "method": "Subjects were randomized to receive a cilansetron 8 mg capsule after an overnight fast and a cilansetron 8 mg capsule after a high-fat breakfast during the two treatment periods, with a 3-day washout between periods. Serial blood sampling and urine collection was performed up to 24 hours following each dose, and cilansetron pharmacokinetic parameters were evaluated."}, "clinical [3]": {"assay": "clinical", "conditions": "both, human, in vivo, po, 16 mg", "method": "In a randomized, double-blind, placebo-controlled, 2-way crossover study in 9 male and 9 female healthy subjects (ITT population, aged 21-39 years), subjects were randomized to receive 2 treatments (cilansetron 16 mg tablet and placebo) during the 2 treatment periods. During each treatment period, subjects received a single dose of their assigned treatment on the first day (Day 1), after which they received the same treatment TID for 4 days (Days 2-5). There was a 10-day washout period between treatment periods. Subjects were fasted for at least 2 hours before and following each dose, and heavy physical activity was restricted. Serial 12-lead ECGs was recorded up to 24 hours following dosing on Day 1 (single dose) and on the last day (Day 5) of each treatment period. Heart rate and ECG intervals (RR, PR, QRS, and QT) were measured electronically, but were manually verified and corrected if needed by the investigator. QT intervals were corrected (QTc) electronically for heart rate using the Bazett's correction. Mean and maximum QTc intervals were calculated over different time intervals postdose and were compared between treatments using an ANOVA accounting for sequence, gender, subject within sequence and gender, period, and treatment effects."}, "IBS patients": {"system": "IBS patients", "assay": "Study K.241.5016: colonic visceral perception", "type": "in vivo, human", "experimental": "The effect of cilansetron on colonic visceral perception was evaluated in a randomized, doubleblind, placebo-controlled, 2-way crossover study in 16 male and female IBS patients (ITT population), aged 28-66 years. Subjects received single IV doses of placebo or cilansetron 16 mg as 30-minute infusions on two consecutive study days, with no washout between the study days. Colonic distension tests were performed just prior to dosing and after completion of the infusion during each treatment. An electronic barostat was used to produce distensions (successive 4 mmHg increases every 5 minutes, up to a sensation of abdominal pain or a maximum of 40 mmHg). The primary efficacy parameter was the mean distension pressure inducing a sensation of abdominal pain. Secondary effect parameters were the mean distension pressure inducing a sensation of abdominal discomfort, and the response rate, defined as the number of patients experiencing no abdominal pain at the maximum pressure of 40 mmHg. The primary and secondary parameters were compared between cilansetron and placebo treatments using an ANOVA."}, "[4]": {"conditions": "16 mg single IV dose, ANOVA, not significant"}, "[5]": {"conditions": "16 mg single IV dose, postdose minus predose, IBS patients, mean (SD)"}},
  "note": "Like-named read-outs stand apart in the source and are kept apart here.",
  "data": [
    {"smiles": "Cc1nccn1C[C@H]1CCc2c(c3cccc4c3n2CCC4)C1=O", "note": "[Cilansetron, (R)-(−)-4,5,6,8,9,10-hexahydro-10-[(2-methyl-1H-imidazol-1-yl)methyl]-11H-pyrido-[3,2,1-jk]-carbazol-11-one]", "values": [
      {"measurement": "AUC(0-inf) ratio Oral Capsule/IV Soln", "setting": "clinical [1]", "result": "25 (19, 32) %"},
      {"measurement": "AUC(0-inf) ratio Oral Soln/IV Soln", "setting": "clinical [1]", "result": "26 (20, 34) %"},
      {"measurement": "AUC(0-last) ratio Oral Capsule/IV Soln", "setting": "clinical [1]", "result": "23 (18, 31) %"},
      {"measurement": "AUC(0-last) ratio Oral Soln/IV Soln", "setting": "clinical [1]", "result": "24 (18, 32) %"},
      {"measurement": "Intrasubject % CV", "setting": "clinical [1]", "result": "37-47%"},
      {"measurement": "% Dose (urine)", "setting": "clinical [1]; iv", "result": "0.41 (96) %"},
      {"measurement": "AUC(0-inf)", "setting": "clinical [1]; iv", "result": "222 (42) ng · h/mL"},
      {"measurement": "CL", "setting": "clinical [1]; iv", "result": "619 (108) mL/min"},
      {"measurement": "Intersubject % CV", "setting": "clinical [1]; iv", "result": "19-20%"},
      {"measurement": "T½", "setting": "clinical [1]; iv", "result": "1.33 (0.32) h"},
      {"measurement": "Vss", "setting": "clinical [1]; iv", "result": "58 (11) L"},
      {"measurement": "AUC(0-inf)", "setting": "clinical [1]; iv, 8 mg, AUC(0-inf)", "result": 234, "unit": "ng·h/mL"},
      {"measurement": "AUC(0-t)", "setting": "clinical [1]; iv, 8 mg, AUC(0-last)", "result": 228, "unit": "ng·h/mL"},
      {"measurement": "clearance", "setting": "clinical [1]; iv, 8 mg, CL", "result": 590, "unit": "mL/min"},
      {"measurement": "CL renal", "setting": "clinical [1]; iv, 8 mg", "result": 2.3, "unit": "mL/min"},
      {"measurement": "clearance", "setting": "clinical [1]; iv, 8 mg, Systemic plasma clearance", "result": "~600", "unit": "mL/min"},
      {"measurement": "half-life", "setting": "clinical [1]; iv, 8 mg", "result": 1.33, "unit": "h"},
      {"measurement": "Vd", "setting": "clinical [1]; iv, 8 mg, Vss", "result": 55.6, "unit": "L"},
      {"measurement": "Vd", "setting": "clinical [1]; iv, 8 mg, Vz", "result": 66.7, "unit": "L"},
      {"measurement": "AUC(0-inf)", "setting": "clinical [1]; iv, AUC (0-inf)", "result": 234, "unit": "ng·h/mL"},
      {"measurement": "clearance", "setting": "clinical [1]; iv, CL", "result": 590, "unit": "mL/min"},
      {"measurement": "Cmax", "setting": "clinical [1]; iv, Cmax", "result": 149, "unit": "ng/mL"},
      {"measurement": "Vd", "setting": "clinical [1]; iv, Steady-state volume of distribution (Vss)", "result": "~56", "unit": "L"},
      {"measurement": "Tmax", "setting": "clinical [1]; iv, Tmax", "result": 0.55, "unit": "h"},
      {"measurement": "half-life", "setting": "clinical [1]; iv", "result": 1.33, "unit": "h"},
      {"measurement": "Vd", "setting": "clinical [1]; iv, Vss", "result": 56, "unit": "L"},
      {"measurement": "AUC (0-inf) ratio capsule:oral solution", "setting": "clinical [1]; po", "result": 93, "unit": "%"},
      {"measurement": "AUC (0-last) ratio capsule:oral solution", "setting": "clinical [1]; po", "result": 96, "unit": "%"},
      {"measurement": "AUC(0-inf)", "setting": "clinical [1]; po", "result": "69 (49) ng · h/mL"},
      {"measurement": "Apparent oral clearance higher than systemic clearance", "setting": "clinical [1]; po", "result": "4.5-5 fold"},
      {"measurement": "Cmax", "setting": "clinical [1]; po", "result": "29 (18) ng/mL"},
      {"measurement": "Cmax ratio capsule:oral solution", "setting": "clinical [1]; po", "result": 88, "unit": "%"},
      {"measurement": "Intersubject % CV", "setting": "clinical [1]; po", "result": "47-73%"},
      {"measurement": "Tmax", "setting": "clinical [1]; po", "result": "0.76 (0.40) h"},
      {"measurement": "T½", "setting": "clinical [1]; po", "result": "1.14 (0.27) h"},
      {"measurement": "bioavailability", "setting": "clinical [1]; po", "result": 25, "unit": "%"},
      {"measurement": "AUC(0-inf)", "setting": "clinical [1]; po, 8 mg", "result": "73.8 (69) ng · h/mL"},
      {"measurement": "AUC(0-last)", "setting": "clinical [1]; po, 8 mg", "result": "69.3 (73) ng · h/mL"},
      {"measurement": "CLr", "setting": "clinical [1]; po, 8 mg", "result": "2.37 (95) mL/min"},
      {"measurement": "Cmax", "setting": "clinical [1]; po, 8 mg", "result": "39.2 (67) ng/mL"},
      {"measurement": "Tmax", "setting": "clinical [1]; po, 8 mg", "result": "0.83 (0.33, 1.25) h"},
      {"measurement": "T½", "setting": "clinical [1]; po, 8 mg", "result": "1.47 (21) h"},
      {"measurement": "Vz/F", "setting": "clinical [1]; po, 8 mg", "result": "308 (79) L"},
      {"measurement": "AUC(0-inf)", "setting": "clinical [1]; po, 8 mg, AUC (0-inf)", "result": 66, "unit": "ng·h/mL"},
      {"measurement": "AUC(0-t)", "setting": "clinical [1]; po, 8 mg, AUC (0-last)", "result": 62.1, "unit": "ng·h/mL"},
      {"measurement": "CL renal", "setting": "clinical [1]; po, 8 mg", "result": 2.92, "unit": "mL/min"},
      {"measurement": "Cmax", "setting": "clinical [1]; po, 8 mg, Cmax", "result": 31.4, "unit": "ng/mL"},
      {"measurement": "Tmax", "setting": "clinical [1]; po, 8 mg, Tmax", "result": 1, "unit": "h"},
      {"measurement": "half-life", "setting": "clinical [1]; po, 8 mg", "result": 1.28, "unit": "h"},
      {"measurement": "Vd/F", "setting": "clinical [1]; po, 8 mg, Vz/F", "result": 342, "unit": "L"},
      {"measurement": "AUC(0-inf)", "setting": "clinical [1]; po, AUC (0-inf)", "result": 74, "unit": "ng·h/mL"},
      {"measurement": "Cmax", "setting": "clinical [1]; po, Cmax", "result": 39, "unit": "ng/mL"},
      {"measurement": "Tmax", "setting": "clinical [1]; po, Tmax", "result": 0.76, "unit": "h"},
      {"measurement": "half-life", "setting": "clinical [1]; po", "result": 1.47, "unit": "h"},
      {"measurement": "CL/F", "setting": "[2]; 8 mg", "result": "2698 (77) mL/min"},
      {"measurement": "% Dose (urine)", "setting": "[2]; male", "result": "0.21 (91) %"},
      {"measurement": "AUC (0-last) ratio fed/fasted", "setting": "[2]; male", "result": 108, "unit": "%"},
      {"measurement": "AUC(0-inf) ratio fed/fasted", "setting": "[2]; male", "result": 104, "unit": "%"},
      {"measurement": "Cmax ratio fed/fasted", "setting": "[2]; male", "result": 79, "unit": "%"},
      {"measurement": "AUC(0-inf)", "setting": "[2]; male, 8 mg", "result": "77.6 (66) ng · h/mL"},
      {"measurement": "AUC(0-last)", "setting": "[2]; male, 8 mg", "result": "72.8 (72) ng · h/mL"},
      {"measurement": "CLr", "setting": "[2]; male, 8 mg", "result": "3.86 (90) mL/min"},
      {"measurement": "Cmax", "setting": "[2]; male, 8 mg", "result": "31.7 (58) ng/mL"},
      {"measurement": "Cmax decrease with high-fat meal", "setting": "[2]; male, 8 mg", "result": 21, "unit": "%"},
      {"measurement": "Tmax", "setting": "[2]; male, 8 mg", "result": "1.00 (0.50, 2.00) h"},
      {"measurement": "T½", "setting": "[2]; male, 8 mg", "result": "1.43 (40) h"},
      {"measurement": "Vz/F", "setting": "[2]; male, 8 mg", "result": "309 (76) L"},
      {"measurement": "Tmax", "setting": "clinical [3]", "result": 3, "unit": "h"},
      {"measurement": "Responders (no abdominal pain at 40 mmHg)", "setting": "IBS patients; 16 mg IV", "result": "1 of 12"},
      {"measurement": "Pressure inducing abdominal pain, Mean Difference to Placebo", "setting": "IBS patients; [4]", "result": "−1.33", "unit": "mmHg"},
      {"measurement": "Pressure inducing abdominal sensation, Mean Difference to Placebo", "setting": "IBS patients; [4]", "result": "−0.67", "unit": "mmHg"},
      {"measurement": "Pressure inducing abdominal pain, Difference Postdose", "setting": "IBS patients; [5]", "result": "3.67 (4.66) mmHg"},
      {"measurement": "Pressure inducing abdominal sensation, Difference Postdose", "setting": "IBS patients; [5]", "result": "2.67 (3.55) mmHg"}
    ]}
  ]
}
